This note sets out measurements from US7960408B2, “Quinolinyl and benzothiazolyl modulators” (Amgen Inc., priority 2000, dated 2011).

The structures appear in SMILES notation. Bounds are passed on as bounds.

One data set addresses T1, PPARγ (Homo sapiens, UniProt P37231).
T1 construct: made in house
T1 sequence (P37231 1-505): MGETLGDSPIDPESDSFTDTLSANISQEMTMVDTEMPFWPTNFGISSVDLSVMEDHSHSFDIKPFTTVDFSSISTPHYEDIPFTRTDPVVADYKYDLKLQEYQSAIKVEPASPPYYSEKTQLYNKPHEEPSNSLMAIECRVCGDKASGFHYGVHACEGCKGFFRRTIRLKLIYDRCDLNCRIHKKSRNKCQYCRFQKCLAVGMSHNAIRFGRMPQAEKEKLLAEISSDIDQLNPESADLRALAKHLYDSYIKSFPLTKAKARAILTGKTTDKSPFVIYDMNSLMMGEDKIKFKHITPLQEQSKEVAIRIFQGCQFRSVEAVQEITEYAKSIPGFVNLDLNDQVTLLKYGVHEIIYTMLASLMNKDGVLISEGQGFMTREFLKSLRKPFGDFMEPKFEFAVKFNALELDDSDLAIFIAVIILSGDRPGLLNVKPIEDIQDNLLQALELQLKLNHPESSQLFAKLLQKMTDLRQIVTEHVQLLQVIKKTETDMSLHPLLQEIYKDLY
As to the kind of experiment: PPARγ ligand binding assay utilizing [3H]-BRL 49653 as the radioligand. Conditions: concentration required to reduce by 50% the specific binding of [3H]-BRL 49653. The method in brief:
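Displacement of 10 nM [3H]-BRL 49653 from PPARγ-GST fusion protein (1 μg/well) in Tris-HCl pH 8.0 buffer with KCl, DTT, BSA and NP-40; 15 min incubation, then glutathione-bead capture for 1 h, washing and scintillation counting. IC50 is the concentration halving specific radioligand binding.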

With `O=S(=O)(Nc1cc(Cl)c(Sc2cnc3ccccc3c2)c(Cl)c1)c1ccccc1Cl` [Compound 3], the melting point amounted to 219.6 °C. For the same compound, the IC50 on PPARγ was less than 1 µM.

As to `O=S(=O)(Nc1cc(Cl)c(Oc2nc3ccc(Cl)cc3s2)c(Cl)c1)c1ccc(Cl)cc1Cl` [Compound 104, 2,4-Dichloro-N-[3,5-dichloro-4-(6-chloro-benzothiazol-2-yloxy)-phenyl]benzenesulfonamide], the melting point fell in the range of 73 to 75 °C. Also, on PPARγ, the concentration for half-maximal inhibition (IC50) lay within 1 to 10 µM.

As to `O=S(=O)(Nc1cc(Cl)c(Oc2nc3ccc(Cl)cc3s2)c(Cl)c1)c1ccc(C(F)(F)F)cc1Cl` [Compound 103, 2-Chloro-N-[3,5-dichloro-4-(6-chloro-benzothiazol-2-yloxy)-phenyl]-4-trifluoromethyl-benzenesulfonamide], the melting point was in the range of 82 to 84 °C. This compound returned an IC50 at PPARγ of less than 1 µM.
